Measurements reported in patent US6541237B1, “A-1,4-glucan lyase and its use in the production of 1.5-androfructose” (Danisco A/S, priority 1994, dated 2003).

How the values were obtained:
[1] = test system: α-1,4-glucan lyase; assay: Degradation studies: AF released by the lyase from various substrates; format: biochemical, Gracilariopsis lemaneiformis; settings: for activity of the lyase towards maltosaccharides / degradation by the lyase: in words; for AF released: substrate 10 mg/ml, 10 mM HOAc-NaOAc pH 3.8, 40 min at 45° C., 100 ul
Protocol: Reaction conditions: The reaction mixture contained 10 mM of HOAc-NaOAc (pH 3.8). The substrate concentration was 10 mg/ml. The final volume was 100 ul after the addition of lyase and water. The reaction time was 40 min at 45° C.

[2] = test system: α-1,4-glucan lyase; assay: Effect of alcohols on activity and stability of the lyase (AF yield); format: biochemical, Gracilariopsis lemaneiformis
Protocol: 1-propanol, 2-propanol and 1-butanol were tested at the following concentrations (0%, 1%, 5% and 10%).
Ethanol was tested at the following concentrations (0, 1, 3, 5, 7, 9, 11, 13, 15%).

[3] = test system: α-1,4-glucan lyase; assay: Reversible and irreversible inhibitors of the lyase; format: biochemical, Gracilariopsis lemaneiformis
[4] = Isoelectric focusing of the α-1,4-glucan lyases; format: physicochemical; settings: isoelectrofocusing, pH gradient 3-9
Description: The relative migration rates were estimated from native PAGE on gels with 8-25% gradient; the pI values were estimated by isoelectrofocusing on gels with a pH gradient of 3-9.
FIG. 2. Isoelectric focusing of the α-1,4-glucan lyases on a gel with a pH gradient of pH 3 to pH 9. The gel was stained with PhastGel Blue R.

## OCC1OC(OC2C(CO)OC(OC3C(CO)OC(O)C(O)C3O)C(O)C2O)C(O)C(O)C1O (stereo not shown) [Maltotriose]
[1]
  activity of the lyase towards maltosaccharides: lower activity
  AF released: 654 nmol

## OC[C@H]1O[C@H](OC[C@H]2OC(O)[C@H](O)[C@@H](O)[C@@H]2O)[C@H](O)[C@@H](O)[C@@H]1O (stereo partly shown) [isomaltose]
[1]
  degradation by the lyase: not able to degrade

## OC[C@H]1O[C@H](O[C@H]2O[C@H](CO)[C@@H](O)[C@H](O)[C@H]2O)[C@H](O)[C@@H](O)[C@@H]1O [trehalose]
[1]
  degradation by the lyase: not able to degrade

## OC[C@H]1O[C@H](O[C@H]2[C@H](O)[C@@H](CO)OC(O)[C@@H]2O)[C@H](O)[C@@H](O)[C@@H]1O (stereo partly shown) [nigerose]
[1]
  degradation by the lyase: slow rate

## Maltopentaose
[1]
  activity of the lyase towards maltosaccharides: highest activity
  AF released: 674 nmol

## CCO [Ethanol]
[2]; optimal concentration 3%, 10 days incubation
  increase of AF yield: 16%
[2]; optimal concentration 5%, 7 days incubation
  increase of AF yield: 12%

## Maltohexaose
[1]
  AF released: 826 nmol

## OC[C@H]1O[C@@H]2O[C@H]3[C@H](O)[C@@H](O)[C@@H](O[C@H]4[C@H](O)[C@@H](O)[C@@H](O[C@H]5[C@H](O)[C@@H](O)[C@@H](O[C@H]6[C@H](O)[C@@H](O)[C@@H](O[C@H]7[C@H](O)[C@@H](O)[C@@H](O[C@H]8[C@H](O)[C@@H](O)[C@@H](O[C@H]1[C@H](O)[C@H]2O)O[C@@H]8CO)O[C@@H]7CO)O[C@@H]6CO)O[C@@H]5CO)O[C@@H]4CO)O[C@@H]3CO [β-cyclodextrins]
[1]
  degradation by the lyase: not able to degrade

## panose
[1]
  degradation by the lyase: slow rate

## pullulan
[1]
  degradation by the lyase: not able to degrade

## 1-butanol
[2]; optimal concentration 5%, after 3-day incubation
  increase of AF yield: 52%

## CC(C)O [2-propanol]
[2]; optimal concentration 1%, after 10 days incubation
  increase of AF yield: 20%

## OC[C@H]1O[C@H](O[C@H]2[C@H](O)[C@@H](O)[C@@H](O[C@H]3[C@H](O)[C@@H](O)[C@@H](O[C@H]4[C@H](O)[C@@H](O)C(O)O[C@@H]4CO)O[C@@H]3CO)O[C@@H]2CO)[C@H](O)[C@@H](O)[C@@H]1O (stereo partly shown) [Maltotetraose]
[1]
  activity of the lyase towards maltosaccharides: highest activity
  AF released: 670 nmol

## OC[C@H]1NC[C@H](O)[C@@H](O)[C@@H]1O [deoxyjirimycin]
[3]; 25 μM inhibitor, substrate amylopectin 2%, algal lyase
  remaining lyase activity: 10.4%
[3]; 100 μM inhibitor, substrate amylopectin 2%
  lyase activity: completely lost

## Maltoheptaose
[1]
  activity of the lyase towards maltosaccharides: lower activity
  AF released: 865 nmol

## nigeran tetrasaccharide
[1]
  degradation by the lyase: not able to degrade

## O=C(O)c1cc[c]([Hg][Cl])cc1 [PCMB, p-chloromercuribenzoic acid]
[3]; 2 mM PCMB, same assay conditions as for deoxyjirimycin (substrate 2% amylopectin)
  decrease of lyase activity: 60%
[3]; final concentration 2 mM PCMB
  inhibition of the lyase activity: 96%

## 1-propanol
[2]; 1% (v/v), reaction time 1 day
  AF yield: 80 µmol
[2]; 1% (v/v), reaction time 3 days
  AF yield: 280 µmol
[2]; 1% (v/v), reaction time 6 days
  AF yield: 530 µmol
[2]; 1% (v/v), reaction time 10 days
  AF yield: 803 µmol
[2]; 5% (v/v), reaction time 1 day
  AF yield: 115 µmol
[2]; 5% (v/v), reaction time 3 days
  AF yield: 367 µmol
[2]; 5% (v/v), reaction time 6 days
  AF yield: 605 µmol
[2]; 5% (v/v), reaction time 10 days
  AF yield: 853 µmol
[2]; 10% (v/v), reaction time 1 day
  AF yield: 107 µmol
[2]; 10% (v/v), reaction time 3 days
  AF yield: 307 µmol
[2]; 10% (v/v), reaction time 6 days
  AF yield: 456 µmol
[2]; 10% (v/v), reaction time 10 days
  AF yield: 583 µmol
[2]; optimal concentration 5%, after 6 days of incubation
  increase of AF yield: 34%

B1: GLsc1-lyase: lyase purified from Gracilariopsis lemaneiformis collected in Santa Cruz, Calif. (protein)
chain: TALSDKQTAISIGPDNPDGINYQNYDYIPVAGFTPLSNTNWYAAGSSTPGGITDWTATMNVKFDRIDNPSYSNNHPVQIQVTSYNNNSFRIRFNPDGPIRDVSRGPILKQQLTWIRNQELAQGCNPNMSFSPEGFLSFETKDLNVIIYGNCKMRVTKKDGYLVMENDECNSQSDGNKCRGLMYVDRLYGNAIASVQTNFHKDTSRNEKFYGAGEVNCRYEEQGKAPTYVLERSGLAMTNYNYDNLNYNQPDVVPPGYPDHPNYYIPMYYAAPWLVVQGCAGTSKQYSYGWFMDNVSQSYMNTGDTAWNCGQENLAYMGAQYGPFDQHFVYGDGDGLEDVVKAFSFLQGKEFEDKKLNKRSVMPPKYVFGFFQGVFGALSLLKQNLPAGENNISVQEIVEGYQDNDYPFEGLAVDVDMQDDLRVFTTKPEYWSANMVGEGGDPNNRSVFEWAHDRGLVCQTNVTCFLRNDNSGKPYEVNQTLREKQLYTKNDSLNNTDFGTTSDGPGDAYIGHLDYGGGVECDAIFPDWGRPDVAQWWGENYKKLFSIGLDFVWQDMTVPAMMPHRLGDAVNKNSGSSAPGWPNENDPSNGRYNWKSYHPQVLVTDMRYGAEYGREPMVSQRNIHAYTLCESTRREGIVGNADSLTKFRRSYIISRGGYIGNQHFGGMWVGDNSATESYLQMMLANIINMNMSCLPLVGSDIGGFTQYNDAGDPTPEDLMVRFVQAGCLLPWFRNHYDRWIESKKHGKKYQELYMYPGQKDTLKKFVEFRYRWQEVLYTAMYQNATTGEPIIKAAPMYNNDVNVYKSQNDHFLLGGHDGYRILCAPVVRENATSREVYLPVYSKWFKFGPDFDTKPLENEIQGGQTLYNYAAPLNDSPIFVREGTILPTRYTLDGVNKSINTYTDNDPLVFELFPLENNQAHGLFYHDDGGVTTNAEDFGKYSVISVKAAQEGSQMSVKFDNEVYEHQWGASFYVRVRNMGAPSNINVSSQIGQQDMQQSSVSSRAQMFTSANDGEYWVDQSTNSLWLKLPGAVIQDAAITVR
[4]
  pI: 4.1

B2: MC-lyase: lyase isolated from the fungus Morchella costata, ATCC (protein)
chain: MAGFSDPLNFCKAEDYYSVALDWKGPQKIIGVDTTPPKSTKFPKNWHGVNLRFDDGTLGVVQFIRPCVWRVRYDPGFKTSDEYGDENTRTIVQDYMSTLSNKLDTYRGLTWETKCEDSGDFFTFSSKVTAVEKSERTRNKVGDGLRIHLWKSPFRIQVVRTLTPLKDPYPIPNVAAAEARVSDKVVWQTSPKTFRKNLHPQHKMLKDTVLDIVKPGHGEYVGWGEMGGIQFMKEPTFMNYFNFDNMQYQQVYAQGALDSREPLYHSDPFYLDVNSNPEHKNITATFIDNYSQIAIDFGKTNSGYIKLGTRYGGIDCYGISADTVPEIVRLYTGLVGRSKLKPRYILGAHQACYGYQQESDLYSVVQQYRDCKFPLDGIHVDVDVQDGFRTFTTNPHTFPNPKEMFTNLRNNGIKCSTNITPVISINNREGGYSTLLEGVDKKYFIMDDRYTEGTSGNAKDVRYMYYGGGNKVEVDPNDVNGRPDFKDNYDFPANFNSKQYPYHGGVSYGYGNGSAGFYPDLNRKEVRIWWGMQYKYLFDMGLEFVWQDMTTPAIHTSYGDMKGLPTRLLVTSDSVTNASEKKLAIETWALYSYNLHKATWHGLSRLESRKNKRNFILGRGSYAGAYRFAGLWTGDNASNWEFWKISVSQVLSLGLNGVCIAGSDTGGFEPYRDANGVEEKYCSPELLIRWYTGSFLLPWLRNHYVKKDRKWFQEPYSYPKHLETHPELADQAWLYKSVLEICRYYVELRYSLIQLLYDCMFQNVVDGMPITRSMLLTDTEDTTFFNESQKFLDNQYMAGDDILVAPILHSRKEIPGENRDVYLPLYHTWYPSNLRPWDDQGVALGNPVEGGSVINYTARIVAPEDYNLFHSVVPVYVREGAIIPQIEVRQWTGQGGANRIKFNIYPGKDKEYCTYLDDGVSRDSAPEDLPQYKETHEQSKVEGAEIAKQIGKKTGYNISGTDPEAKGYHRKVAVTQTSKDKTRTVTIEPKHNGYDPSKEVGDYYTIILWYAPGFDGSIVDVSKTTVNVEGGVEHQVYKNSDLHTVVIDVKEVIGTTKSVKITCTAA
[4]
  pI: 4.5

B3: GLsc2-lyase: second lyase purified from Gracilariopsis lemaneiformis collected in Santa Cruz, Calif. (protein)
chain: B1 chain
[4]
  pI: 4.1
